From US20050277779A1, “Antifungal and antimycobacterial basiliskamides” (priority 1998, published 2005) come the findings set out here.

Values after ≈ are worked out from the molar mass of the structure shown.

The test system of data set [1] is normal human fibroblast cells. Description: Cytotoxicity testing, cytopathic effect. The following applies: for Cytopathic Effect (48 hours): Human Fibroblast. Set-up: key to Cytopathic Effect (48 hours): 1: slight change in morphology vs. control; 2: occasional rounding, vacuolization, or granularity; 3: rounding, vacuolization, detachment of 50% of cells; 4: destruction of monolayer. It counts as cell-based. As for the experimental part:
(§1) Cytotoxicity Testing of Basiliskamide A: Serial dilutions of basiliskamide A were prepared in cell culture medium and tested for toxicity for normal human fibroblast cells and for human tumor cell line. […] The appearance of the cells was assessed after 48 hours exposure to the compounds. Basiliskamide produced no cytotoxicity for normal human fibroblast cells at concentrations less than 100 μg/ml compared to amphotericin B (ampho) which was toxic at concentrations as low as 25 μg/ml.

The test system of a further data set is human tumor cell line. As to the kind of experiment: Cytotoxicity testing, cytopathic effect. Set-up: key: 1: slight change in morphology vs. control; 2: occasional rounding, vacuolization, or granularity; 3: rounding, vacuolization, detachment of 50% of cells; 4: destruction of monolayer. Format: cell-based. The procedure: as §1
Data set [2] has as its system Clinical Isolates of Candida albicans. As to the kind of experiment: Macrobroth dilution against 7 clinical isolates.
The subject of data set [3] is Trichophyton rubrum. Description: Antifungal agar dilution. The settings on record: read-out: Minimal Inhibitory Concentration.
Data set [4] deals with Aspergillus fumigatus. As to the kind of experiment: Antifungal macrobroth dilution (NCCLS M27-A). The following applies: read-out: Minimal Inhibitory Concentration.
The subject of data set [5] is Aspergillus fumigatus. As to the kind of experiment: Antifungal agar dilution.
For a further data set, the system named is M. avium-intracellulare. Format: cell-based, Mycobacterium avium-infracellulare. The settings on record: agar dilution.
The test system of data set [6] is Candida albicans. Description: Antifungal macrobroth dilution (NCCLS M27-A). The following applies: read-out: Minimal Inhibitory Concentration.
Data set [7] relates to Candida albicans. As to the kind of experiment: Antifungal agar dilution.
Data set [8] concerns Trichophyton rubrum. As to the kind of experiment: Antifungal macrobroth dilution (NCCLS M27-A). The settings on record: read-out: Minimal Inhibitory Concentration.
For data set [9], the system named is Mycobacterium tuberculosis. Description: microbe, parasite or virus in culture. The settings on record: read-out: Minimal Inhibitory Concentration.
Description: (§2) Antimycobacterial Activity of the Basiliskamides: The Basiliskamides were tested for antimycobacierial activity using a standardized agar dilution method (Underlied, C B and Salfinger, S. 1995. In Manual of Clinical Microbiology, Murray, Baron, Pfaller, Tenover, Yolken (Eds.), ASM Press, page 1395-1404).
In data set [10] the test system is Mycobacterium tuberculosis. The following applies: agar dilution.
Description: as §2
[11] abbreviates: read-out: Minimal Inhibitory Concentration.

Consider `C[C@@H]1[C@H](O)[C@@H](C)/C=C/C=C/C=C/C=C/C=C/C=C/C=C/[C@H](O[C@@H]2O[C@H](C)[C@@H](O)[C@H](N)[C@@H]2O)C[C@@H]2O[C@](O)(C[C@@H](O)C[C@@H](O)[C@H](O)CC[C@@H](O)C[C@@H](O)CC(=O)O[C@H]1C)C[C@H](O)[C@H]2C(=O)O` [Amphotericin B], for which the “Cytopathic Effect (48 hours)” value in [1] (0.78 μg/ml) was 0; in [1] (1.57 μg/ml), 0; in data set [1] (3.12 μg/ml) it was 0; in data set [1] (6.25 μg/ml) it was 0; in data set [1] (12.5 μg/ml) it was 1; in [1] (25 μg/ml), 2. The “Cytopathic Effect (48 hours)” value in data set [1] (50 μg/ml) stood at 2; in data set [1] (100 μg/ml) it was 4; in the data set with human tumor cell line (0.78 μg/ml), 0; with human tumor cell line (1.57 μg/ml) it was 0; with human tumor cell line (3.12 μg/ml), 0; with human tumor cell line (6.25 μg/ml), 0. For the same compound, the “Cytopathic Effect (48 hours)” value with human tumor cell line (12.5 μg/ml) is on record as 0; in the data set with human tumor cell line (25 μg/ml), 1; with human tumor cell line (50 μg/ml), 3; in the data set with human tumor cell line (100 μg/ml) it was 4. In addition, the “concentrations at which toxic” value in data set [1] (normal human fibroblast cells, 48 hours exposure) was at least 25000 ng/mL. In addition, the “Minimal Inhibitory Concentration” value in data set [2] (C. albicans clinical isolate 8167), in [2] (C. albicans clinical isolate 8362), in [2] (C. albicans clinical isolate 8363), in [2] (C. albicans clinical isolate 8364), in data set [2] (C. albicans clinical isolate 8365) and in [2] (C. albicans clinical isolate 8366) was 0.5 µg/mL in each case. For the same compound, the “Minimal Inhibitory Concentration” value in data set [2] (C. albicans clinical isolate 8367) amounted to 0.5 µg/mL.
Consider `CC[C@@H](C)[C@H](O)[C@H](C)[C@@H](C/C=C/C=C\C(N)=O)OC(=O)/C=C/c1ccccc1` [Basiliskamide B], for which the MIC was 5 µg/mL (≈ 13 µM) in the data set with Trichophyton rubrum [3]; at least 32 µg/mL with Aspergillus fumigatus [4]; 5 µg/mL (≈ 13 µM) in the data set on Aspergillus fumigatus [5] (setting [11]); above 100 µg/mL in the data set with M. avium-intracellulare (Mycobacterium, M. avium-intracellulare, read-out: Minimal Inhibitory Concentration); at least 32 µg/mL in the data set with Candida albicans [6]; 3.1 µg/mL (≈ 8.04 µM) with Candida albicans [7] (setting [11]). Besides, the MIC came out at 4 µg/mL (≈ 10.4 µM) in the data set with Trichophyton rubrum [8] and 50 µg/mL (≈ 130 µM) in data set [9]. Also, the “activity relative to YL-03709B-A” value in the data set on Aspergillus fumigatus [5] (agar dilution, from Table 5) is “significantly more active”; with Candida albicans [7] (agar dilution, from Table 5), “significantly more active”. Besides, in the data set on M. avium-intracellulare, the “activity against M. avium-intracellulare (in words)” value is “relatively inactive”. The “activity against M. tuberculosis (in words)” value in data set [10] is reported as “have activity”.
